From patent US7495027B2, “3-aryl-4-hydroxyfuranone compounds and the human and animal health use thereof” (Wyeth, priority 2003, dated 2009) come the findings set out here.

For data set [1], the target named is E. coli UDP-N-acetylglucosamine enolpyruvoyl transferase, MurA (Escherichia coli, UniProt P0A749). Kind of data set: biochemical. As to conditions: (E) E. coli enzyme. The method, boiled down: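 Enzyme in 50 mM Tris/HCl pH 8.0 with 5 mM DTT and 20% glycerol was pre-incubated 10 min at 37° C with test compound in DMSO/water. Tris/BME and assay buffer then started the 1 hr, 37° C reaction, with a baseline 340 nm reading taken at start. Stop solution followed, and colour developed 30 minutes.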

Data set [2] concerns larvae of blowfly, Lucilia sericata. Kind of data set: whole plant or invertebrate. The settings on record: dose rate of 20 ppm, Lucilia sericata larvae on treated filter paper with bovine serum. On the procedure:
Comparative Evaluation of the Efficacy of a 3-Aryl-4-hydroxyfuranone Compound Against Blowfly Larvae
In this evaluation, filter paper discs are treated with an acetone solution of test compound and allowed to dry. Bovine serum and newly emerged larvae of blowfly, Lucilia sericata, are added to the treated filter paper. Mortality is assessed at 24 h and 48 h. When more than one evaluation is performed, the data are averaged.

Data set [3] addresses T1, S. aureus UDP-N-acetylglucosamine enolpyruvoyl transferase, MurA (Staphylococcus aureus, UniProt P84058).
T1 sequence (P84058 1-421): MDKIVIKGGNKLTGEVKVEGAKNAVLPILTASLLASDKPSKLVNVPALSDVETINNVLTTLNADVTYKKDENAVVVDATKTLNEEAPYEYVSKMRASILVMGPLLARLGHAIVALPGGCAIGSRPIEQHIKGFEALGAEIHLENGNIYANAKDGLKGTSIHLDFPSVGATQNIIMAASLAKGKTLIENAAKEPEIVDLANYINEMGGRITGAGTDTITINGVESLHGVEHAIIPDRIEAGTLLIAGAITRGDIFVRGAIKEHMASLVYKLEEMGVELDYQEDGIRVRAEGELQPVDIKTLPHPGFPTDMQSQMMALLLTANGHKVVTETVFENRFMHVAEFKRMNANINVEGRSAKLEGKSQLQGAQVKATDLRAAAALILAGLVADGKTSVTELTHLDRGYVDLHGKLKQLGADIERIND
Kind of data set: Inhibitory activity against MurA (S. aureus). The data set is classed as biochemical. The settings on record: (S) S. aureus enzyme. The method, then:
Evaluation of the Inhibitory Activity of Test Compounds Against Enzymes which Catalyze Bacterial Cell Wall Biosynthesis
S. aureus and E. coli UDP-N-acetylglucosamine enolpyruvoyl transferase, MurA
Preparation of Enzyme Solution:
The enzyme solution is prepared by admixing the following: 50 mM Tris/HCl pH 8.0, […] 1 M Tris, 5 mM DTT, […] 1 M DTT, 20% Glycerol 4 ml 50% Glycerol, add water to 10 ml.
Preparation of Stop Solution:
The stop solution is prepared by mixing the following: 4.2% ammonium molybdate in 4N HCl, 8.4 g/200 ml 4N HCl, 0.045% malachite green, 90 mg/200 ml water, then stir 1 part ammonium molybdate with 2 parts malachite green for 30 min.
A procedure similar to that described by C. T. Walsh in Biochemistry 33, 10646-10651, is used to evaluate the inhibitory activity of test compounds against MurA, the enzyme which catalyzes the first step of bacterial cell wall biosynthesis. Experiments are performed by adding a solution of test compound (in a mixture of dimethylsulfoxide and water) and an enzyme solution to a well. After a pre-incubation period of 10 mintues at 37° C., Tris/BME buffer and assay buffer are added. A start point optical density (OD0) reading is taken at 340 nm immediately following the addition of assay buffer. After incubation for 1 hr at 37° C., the stop solution is added and the color is allowed to develop for 30 minutes. An end point OD1 reading at […] is then taken. […]

[4] abbreviates: assessed at 24 h, read-out: % Mortality 24 h.
The mark [5] stands for this setting: assessed at 48 h, read-out: % Mortality 48 h.

Read-outs that look alike come from different tables or passages of the source.

Chain of E. coli UDP-N-acetylglucosamine enolpyruvoyl transferase, MurA (P0A749 whole entry): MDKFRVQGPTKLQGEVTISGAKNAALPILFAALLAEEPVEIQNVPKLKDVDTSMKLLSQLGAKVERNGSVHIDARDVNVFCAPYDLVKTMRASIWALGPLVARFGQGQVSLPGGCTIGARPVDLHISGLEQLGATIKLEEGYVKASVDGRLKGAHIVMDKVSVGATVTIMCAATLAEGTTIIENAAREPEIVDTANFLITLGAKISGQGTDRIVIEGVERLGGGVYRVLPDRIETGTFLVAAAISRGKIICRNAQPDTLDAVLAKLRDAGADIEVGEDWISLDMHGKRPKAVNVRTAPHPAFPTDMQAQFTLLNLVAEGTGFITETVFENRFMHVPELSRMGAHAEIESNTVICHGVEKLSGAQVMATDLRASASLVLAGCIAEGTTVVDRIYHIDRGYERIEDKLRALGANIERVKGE

Turning to `O=C1O/C(=C\c2ccc(-c3cccc(C(F)(F)F)c3)cc2)C(O)=C1c1cccc(C(F)(F)F)c1`, the “MurA IC50” value in data set [1] was >25 (E) μg/mL. Further, in data set [2] (assessed at 24 h), the “% Mortality 24 h” value came to 0%. For the same compound, the “% Mortality 48 h” value in data set [2] (assessed at 48 h) turned out to be 0%.

For `O=C1O/C(=C\c2ccc(-c3cc(Cl)cc(Cl)c3)cc2)C(O)=C1c1cc(Cl)cc(Cl)c1`, the “MurA IC50” value in data set [1] is on record as 1 (E) μg/mL. The mortality at 20 ppm in data set [2] (setting [4]) and in data set [2] (setting [5]) was 0% throughout. In the case of `O=C1OC(=Cc2ccc(-c3ccccc3)cc2)C(O)=C1c1cccc(C(F)(F)F)c1` (mixture of isomers) [Example 11], in data set [1], the “MurA IC50” value is 1 (E) μg/mL.

For `Cc1ccc(C=C2OC(=O)C(c3ccc(Cl)cc3)=C2O)s1` (mixture of isomers) [Example 13], the “MurA IC50” value in data set [1] is on record as 0.5 (E) μg/mL. With `O=C1OC(=Cc2cccc3ccccc23)C(O)=C1c1ccc(C=NO)cc1` (mixture of isomers) [Example 73], the “MurA IC50” value in data set [3] was >25 (S) μg/mL. As for `Cc1ccc(C=C2OC(=O)C(c3ccc(Cl)cc3)=C2O)s1` [Example 14], the “MurA IC50” value in data set [1] is recorded as 5 (E) μg/mL. Still for that read-out and setting: as for `O=C1OC(=CC2CCCCC2)C(O)=C1c1cccc(C(F)(F)F)c1` [Example 16], the figure is >25 (E) μg/mL.

On to `COc1cc(/C=C2\OC(=O)C(c3cccc(Cl)c3)=C2O)ccc1-c1ccccc1Cl` [Example 18], for which half-maximal inhibition in data set [3] (IC50) was put at 13.7 µM. Same read-out and setting: as for `COc1ccccc1-c1ccc(/C=C2\OC(=O)C(c3cc(Cl)cc(Cl)c3)=C2O)cc1OC` [Example 19], the figure is 36.2 µM; as for `COc1ccccc1-c1ccc(/C=C2\OC(=O)C(c3ccc(Cl)c(Cl)c3)=C2O)cc1OC` [Example 20], above 53.3 µM.

In turn, `COc1cc(/C=C2\OC(=O)C(c3cc(Cl)cc(Cl)c3)=C2O)ccc1-c1ccccc1Cl` [Example 21] gave a half-inhibitory concentration (IC50) in data set [3] of 10.6 µM.

In turn, `COc1cc(/C=C2\OC(=O)C(c3cccc(Cl)c3)=C2O)ccc1-c1ccccc1C` [Example 22] showed an IC50 in data set [3] of 21.5 µM.

Turning to `COc1ccccc1-c1ccc(/C=C2\OC(=O)C(c3cccc(Cl)c3)=C2O)cc1C` [Example 23], inhibition in data set [3] was half-maximal at 33.4 µM (IC50). On the same count and under the same terms, the same measure for `COc1ccccc1-c1ccc(/C=C2\OC(=O)C(c3cc(Cl)cc(Cl)c3)=C2O)cc1C` [Example 24]: 15.4 µM.

In data set [3], `COc1cc(/C=C2\OC(=O)C(c3cc(Cl)cc(Cl)c3)=C2O)ccc1-c1ccccc1C` [Example 25] gave a concentration for half-maximal inhibition (IC50) of 11 µM.

The compound `Cc1cc(/C=C2\OC(=O)C(c3cccc(Cl)c3)=C2O)ccc1-c1ccccc1C(F)(F)F` [Example 26] had an IC50 in data set [3] of 8.76 µM. Compound `Cc1cc(/C=C2\OC(=O)C(c3cc(Cl)cc(Cl)c3)=C2O)ccc1-c1ccccc1C(F)(F)F` [Example 27] had an IC50 in data set [3] of 4.07 µM. In turn, `Cc1ccccc1-c1ccc(/C=C2\OC(=O)C(c3cccc(Cl)c3)=C2O)cc1C` [Example 28] had an IC50 in data set [3] of 24.8 µM. Same read-out and setting: as for `Cc1ccccc1-c1ccc(/C=C2\OC(=O)C(c3cc(Cl)cc(Cl)c3)=C2O)cc1C` [Example 29], the figure is 4.57 µM.

`Cc1cc(/C=C2\OC(=O)C(c3cccc(Cl)c3)=C2O)ccc1-c1ccccc1Cl` [Example 30] gave an IC50 in data set [3] of 7.09 µM. Take `Cc1cc(C=C2OC(=O)C(c3cc(Cl)cc(Cl)c3)=C2O)ccc1-c1ccccc1Cl` [Example 31]: the “MurA IC50” value in data set [3] is 2 (S) μg/mL.

As to `COc1cc(/C=C2\OC(=O)C(c3cccc(Cl)c3)=C2O)ccc1-c1ccccc1C(F)(F)F` [Example 32], the half-inhibitory concentration (IC50) in data set [3] was 21.1 µM. On the same count and under the same terms, as for `COc1cc(/C=C2\OC(=O)C(c3cc(Cl)cc(Cl)c3)=C2O)ccc1-c1ccccc1C(F)(F)F` [Example 33], the figure is 7.89 µM. `O=C1O/C(=C\c2ccc(N3CCOCC3)c(F)c2)C(O)=C1c1cc(Cl)cc(Cl)c1` [Example 34]: the “MurA IC50” value in data set [3] is given as 22 (S) μg/mL. Turning to `COc1ccc(C=C2OC(=O)C(c3cccc(Cl)c3)=C2O)c2ccccc12` [Example 35], the “MurA IC50” value in data set [3] was >25 (S) μg/mL. In the case of `COc1ccc(/C=C2\OC(=O)C(c3cc(Cl)cc(Cl)c3)=C2O)c2ccccc12` [Example 36], the half-maximal inhibitory concentration (IC50) in data set [3] is 14.5 µM. The same measure, in the same setting: as for `O=C1O/C(=C\c2ccc(N3CCOCC3)c3ccccc23)C(O)=C1c1cccc(Cl)c1` [Example 37], the figure is above 57.6 µM.

`O=C1O/C(=C\c2ccc(N3CCOCC3)c3ccccc23)C(O)=C1c1cc(Cl)cc(Cl)c1` [Example 38] registered an IC50 in data set [3] above 53.4 µM. As to `Cc1cc(/C=C2\OC(=O)C(c3cc(Cl)cc(Cl)c3)=C2O)ccc1-c1ccccc1OS(C)(=O)=O` [Example 39], in data set [3], the “MurA IC50” value is 15 (S) μg/mL. With `O=C1O/C(=C\c2cccc(C(F)(F)F)c2)C(O)=C1c1ccc2ccccc2c1` [Example 42], the “MurA IC50” value in data set [1] is reported as 20 (E) μg/mL.

Regarding `O=C1O/C(=C\C2CCCCC2)C(O)=C1c1ccc2ccccc2c1` [Example 51], the 50% inhibitory concentration (IC50) in data set [1] is above 78 µM. For the compound `CCOC(=O)c1cccc(C2=C(O)C(=Cc3cccc4ccccc34)OC2=O)c1` [Example 75], the “MurA IC50” value in data set [3] is given as >25 (S) μg/mL.

Consider `O=C1O/C(=C\c2cccc3ccccc23)C(O)=C1c1cccc(C=NO)c1` [Example 77], for which the “MurA IC50” value in data set [3] is given as >25 (S) μg/mL.

Regarding `CN(C)c1ccc(/C=C2\OC(=O)C(c3ccc(Cl)cc3)=C2O)c2ccccc12` [Example 78], the IC50 in data set [3] was above 63.8 µM.

As to `CN(C)c1ccc(/C=C2\OC(=O)C(c3cc(Cl)cc(Cl)c3)=C2O)c2ccccc12` [Example 79], the half-inhibitory concentration (IC50) in data set [3] was 32.8 µM. As to `CN(C)c1ccc(C=C2OC(=O)C(c3cc(Cl)cc(Cl)c3)=C2O)c2ccccc12` [Example 80], the “MurA IC50” value in data set [3] is listed as 15 (S) μg/mL.

Consider `CN(C)c1ccc(/C=C2\OC(=O)C(c3ccc(C(F)(F)F)cc3)=C2O)c2ccccc12` [Example 81], for which the 50% inhibitory concentration (IC50) in data set [3] is above 58.8 µM. The compound `O=C1O/C(=C\c2cccc(C(F)(F)F)c2)C(O)=C1c1ccc(-c2ccccc2)c(F)c1` [Example 106] gave a half-inhibitory concentration (IC50) in data set [1] of 21.1 µM. Turning to `O=C1O/C(=C\c2cccc(-c3cccc(Cl)c3)c2)C(O)=C1c1cccc(Cl)c1` [Example 134], the “MurA IC50” value in data set [1] is given as 5 (E) μg/mL. As for `O=C1O/C(=C\c2cccc(-c3cc(Cl)cc(Cl)c3)c2)C(O)=C1c1cc(Cl)cc(Cl)c1` [Example 136], the 50% inhibitory concentration (IC50) in data set [3] is 2.09 µM. Still for that read-out and setting: the same measure for `O=C1O/C(=C\c2ccccc2-c2ccc(Cl)cc2)C(O)=C1c1ccc(Cl)cc1` [Example 137]: 31.8 µM; for `O=C1O/C(=C\c2ccccc2-c2cccc(Cl)c2)C(O)=C1c1cccc(Cl)c1` [Example 140]: 26.9 µM; for `O=C1O/C(=C\c2ccccc2-c2ccc(Cl)c(Cl)c2)C(O)=C1c1ccc(Cl)c(Cl)c1` [Example 141]: 6.27 µM.

Take `O=C1O/C(=C\c2cc(C(F)(F)F)ccc2Cl)C(O)=C1c1ccc(N2CCOCC2)c(F)c1` [Example 142]: the “MurA IC50” value in data set [3] is recorded as >25 (S) μg/mL. In data set [1], `O=C1O/C(=C\c2ccc(C(F)(F)F)cc2)C(O)=C1c1ccc(-c2ccccc2)cc1` [R=H, R1=4-(biphenyl), R2=4-CF3—C6H4] showed a concentration for half-maximal inhibition (IC50) of 46.5 µM. For the same compound, the mortality at 20 ppm in data set [2] (setting [4]) and in data set [2] (setting [5]) was 0% in each case. In the case of `O=C1O/C(=C\c2ccc(-c3ccc(Cl)cc3)cc2)C(O)=C1c1ccc(Cl)cc1` [R=H, R1=4-Cl—C6H4, R2=4-(4′-Cl-biphenyl)], half-maximal inhibition in data set [1] (IC50) was put at 14.7 µM. For the same compound, the mortality at 20 ppm in data set [2] (setting [4]) and in data set [2] (setting [5]) was 0% throughout.

The compound `O=C1O/C(=C\c2cccc3ccccc23)C(O)=C1c1ccc(-c2ccccc2)cc1` [R=H, R1=4-biphenyl, R2=1-naphthyl] had an IC50 in data set [1] of 58.9 µM. Moreover, the mortality at 20 ppm in data set [2] (setting [4]) and in data set [2] (setting [5]) was 100% each time.
